Results taken from BindingDB's records for doi:10.1007/s10822-022-00478-x (Roche Innovation Center Basel, F. Hoffmann-La Roche Ltd., 2022).

target: cAMP and cAMP-inhibited cGMP 3',5'-cyclic phosphodiesterase 10A (Homo sapiens, UniProt Q9Y233); assay: PDE10A assay
Method: Compounds were diluted in 20 mM HEPES/NaOH (pH 7.5), 10 mM MgCl2 and 0.05 mg/ml bovine serum albumin. A fixed amount of 2 ng/well human PDE10A enzyme was added and incubated at room temperature for 15 min under agitation. The reaction was started by the addition of the substrate cocktail [3H]cGMP (Perkin Elmer NET337001MC, S.A. 13.5 Ci/mmol) / cGMP at a final concentration of 50 nM and incubated for an additional 15 min. The reaction was stopped by the addition of 0.5 mg/well of Y-Si SPA beads. The plates were shaken for 1 h, followed by a brief centrifugation (170 g for 1 min). The radioactivity bound to the beads was estimated using a TopCount (Perkin-Elmer). For the determination of IC50 values, a four parameters logistics equation was used. pIC50 is defined as − log10(IC50).

Q: `Cn1cc(-c2ccncc2)c(C(=O)Nc2cc(-c3ccccn3)nn2C)n1` [Roche-Dataset for PDE10A, Compound 1102] was tested. Which IC50 did it give?
A: The IC50 was 124 nM.

Q: With `O=C(Nc1ccn(CC(F)(F)F)n1)c1nc(Cl)ccc1Nc1cncnc1` [Roche-Dataset for PDE10A, Compound 859] as the compound, how does the IC50 read?
A: Its IC50 is 156 nM.

Q: How did the IC50 turn out when `Cn1cc(-c2ccccc2)nc1/C=C/c1nc(N2CCOCC2)c2cc(Cl)ccc2n1` [Roche-Dataset for PDE10A, Compound 64] was run?
A: Its IC50 is 1.31 nM.

Q: For `CCCCc1cc(NC(=O)c2c(C(=O)N3CCC3)cnn2C)nn1C1CCCC1` [Roche-Dataset for PDE10A, Compound 966], which IC50 is on record?
A: The IC50 was 568 nM.

Q: `Cn1cc(-c2ccccc2)nc1CCc1nc(-c2ccccc2)cc(=O)[nH]1` [Roche-Dataset for PDE10A, Compound 94] was tested. Which IC50 did it give?
A: The IC50 was 987 nM.

Q: `Cc1cc(CNC(=O)c2cnn(C)c2C(=O)Nc2ccn3cc(-c4ccccc4)nc3n2)n[nH]1` [Roche-Dataset for PDE10A, Compound 99] was tested. Which IC50 did it give?
A: The IC50 was 17 nM.

Q: With `Cn1nc(N2CCCC2)nc1CCc1nc2c(F)cc(F)cn2n1` [Roche-Dataset for PDE10A, Compound 407] as the compound, how does the IC50 read?
A: The IC50 was 628 nM.

Q: For `CN(C)C(=O)c1cnn(C)c1C(=O)Nc1ccn2nc(-c3ccnc(S(C)(=O)=O)c3)nc2c1` [Roche-Dataset for PDE10A, Compound 421], which IC50 is on record?
A: Its IC50 is 8.81 nM.

Q: How did the IC50 turn out when `O=C(Nc1ccn(Cc2ccccc2)n1)c1nc(C2CC2)ccc1Nc1cncnc1` [Roche-Dataset for PDE10A, Compound 446] was run?
A: The IC50 was 3.41 nM.

Q: `O=C(Nc1ccn2nc(-c3ccccc3)nc2c1)c1conc1C(=O)NC1CC1` [Roche-Dataset for PDE10A, Compound 437] was tested. Which IC50 did it give?
A: The IC50 was 150 nM.

Q: For `Cn1c(Cl)nc(C(=O)N2CCC2)c1C(=O)Nc1ccn2nc(-c3ccccc3)nc2c1` [Roche-Dataset for PDE10A, Compound 115], which IC50 is on record?
A: Its IC50 is 0.45 nM.

Q: Which IC50 does the source give for `O=C(NCc1ccc2c(c1)CCO2)c1nc(C2CC2)cnc1Nc1cncnc1` [Roche-Dataset for PDE10A, Compound 718] here?
A: The IC50 was 148 nM.

Q: How did the IC50 turn out when `Cc1c(Cl)cc(Cl)c2nc(CCc3ccn(C)n3)nn12` [Roche-Dataset for PDE10A, Compound 980] was run?
A: Its IC50 is 309 nM.

Q: For `O=C(Nc1cc(-c2ccc(Cl)cn2)nn1CCO)c1nc(C2CC2)ccc1Nc1cncnc1` [US8470820, 26], which IC50 is on record?
A: Its IC50 is 1.59 nM.

Q: Which IC50 does the source give for `Cn1ncc(C(=O)N2CCC2)c1C(=O)Nc1ccn2nc(-c3ccccc3OCF)nc2c1` [Roche-Dataset for PDE10A, Compound 71] here?
A: Its IC50 is 1.73 nM.

Q: Which IC50 does the source give for `CCc1nc2ccc(OCc3cccc(N4CCCC4)n3)nn2c1C` [2-ethyl-3-methyl-6-((6-(pyrrolidin-1-yl)pyridin-2-yl)methoxy)imidazo[1,2-b]pyridazine] here?
A: Its IC50 is 547 nM.

Q: For `CCn1cc(-c2ccccc2)nc1CCc1nc2ccccc2nc1C` [Roche-Dataset for PDE10A, Compound 87], which IC50 is on record?
A: Its IC50 is 41 nM.

Q: Which IC50 does the source give for `COC(=O)c1cnn(C)c1C(=O)Nc1ccn2nc(-c3ccccc3)nc2c1` [Roche-Dataset for PDE10A, Compound 378] here?
A: Its IC50 is 15 nM.

Q: For `O=C(Nc1ccn(CCC(F)(F)F)n1)c1nc(C2CC2)ccc1Nc1cncnc1` [Roche-Dataset for PDE10A, Compound 498], which IC50 is on record?
A: The IC50 was 9.67 nM.

Q: Which IC50 does the source give for `CC(C)C[C@H](CO)NC(=O)c1nc(C2CC2)cnc1Nc1cncnc1` [Roche-Dataset for PDE10A, Compound 939] here?
A: The IC50 was 2450 nM.

Q: With `Cc1c(C(F)F)nc2ccc(CCc3nc(-c4ccccc4)cn3C)nn12` [US10399985, Example 19] as the compound, how does the IC50 read?
A: The IC50 was 5.6 nM.

Q: How did the IC50 turn out when `CNC(=O)c1cc2[nH]c(-c3ccccc3)nc2cc1NC(=O)c1oc(CO)nc1C` [Roche-Dataset for PDE10A, Compound 238] was run?
A: The IC50 was 748 nM.

Q: Which IC50 does the source give for `O=C1c2ccccc2C(=O)N1CCc1cnc(-c2ccccc2)[nH]1` [Roche-Dataset for PDE10A, Compound 299] here?
A: The IC50 was 503 nM.

Q: `COc1cccc(-c2nc3cc(NC(=O)c4c(C(=O)N5CCC5)cnn4C)ccn3n2)n1` [Roche-Dataset for PDE10A, Compound 160] was tested. Which IC50 did it give?
A: Its IC50 is 1.09 nM.

Q: `C[C@@H](NC(=O)c1ccc(NC(=O)c2nc(C3CC3)ccc2Nc2cncnc2)s1)c1ccccc1` [Roche-Dataset for PDE10A, Compound 563] was tested. Which IC50 did it give?
A: Its IC50 is 320 nM.

Q: `O=C(Nc1cccnn1)c1nc(C2CC2)cnc1Nc1cncnc1` [Roche-Dataset for PDE10A, Compound 1105] was tested. Which IC50 did it give?
A: The IC50 was 271 nM.
